Source: patent publication US11161855B2, “Tricyclic fused thiophene derivatives as JAK inhibitors” (Incyte Corporation, priority 2012, dated 2021)

test system: human JAK1 (a.a. 837-1142); experiment: In vitro JAK kinase assay (HTRF), JAK1; type: biochemical; details: ratio of IC50s, 1 mM ATP
Protocol: Compounds herein were tested for inhibitory activity of JAK targets according to the following in vitro assay described in Park et al., Analytical Biochemistry 1999, 269, 94-104. The catalytic domains of human JAK1 (a.a. 837-1142), JAK2 (a.a. 828-1132) and JAK3 (a.a. 781-1124) were expressed using baculovirus in insect cells and purified. The catalytic activity of JAK1, JAK2 or JAK3 was assayed by measuring the phosphorylation of a biotinylated peptide. The phosphorylated peptide was detected by homogenous time resolved fluorescence (HTRF). IC50s of compounds were measured for each kinase in the 40 μL reactions that contain the enzyme, ATP and 500 nM peptide in 50 mM Tris (pH 7.8) buffer with 100 mM NaCl, 5 mM DTT, and 0.1 mg/mL (0.01%) BSA. For the 1 mM IC50 measurements, ATP concentration in the reactions was 1 mM. Reactions were carried out at room temperature for 1 hour and then stopped with 20 μL 45 mM EDTA, 300 nM SA-APC, 6 nM Eu-Py20 in assay buffer (Perkin Elmer, Boston, Mass.). Binding to the Europium labeled antibody took place for 40 minutes and HTRF signal was measured on a PHERA star plate reader (BMG, Cary, N.C.). The Example compounds were each tested in the Example A assay (see Table 1 for data for the compounds of the examples as tested by the assay of Example A at 1 mM ATP).

Row | JAK2/JAK1 | SMILES
1 | >10 | N#CCc1nc2cnc3ccsc3c2n1[C@H]1CC[C@@H](CC#N)OC1 [Example 74, {(2S,5S)-5-[2-(Cyanomethyl)-1H-imidazo[4,5-d]thieno[3,2-b]pyridin-1-yl]tetrahydro-2H-pyran-2-yl}acetonitrile]
2 | >10 | C[C@@H](O)c1nc2cnc3ccsc3c2n1[C@H]1CC[C@@H](CC#N)C1.O=C(O)C(F)(F)F [Example 49, ((1R,3S)-3-{2-[(1R)-1-Hydroxyethyl]-1H-imidazo[4,5-d]thieno[3,2-b]pyridin-1-yl}cyclopentyl)acetonitrile Trifluoroacetate]
3 | >10 | CC(C)OC(=O)NC[C@H]1CC[C@H](n2c([C@@H](C)O)nc3cnc4ccsc4c32)CO1 [Example 76, Isopropyl [((2R,5S)-5-{2-[(1R)-1-hydroxyethyl]-1H-imidazo[4,5-d]thieno[3,2-b]pyridin-1-yl}tetrahydro-2H-pyran-2-yl)methyl]carbamate]
4 | >10 | CC(CC(=O)N1CCC[C@H](n2c([C@@H](C)O)nc3cnc4ccsc4c32)C1)c1ccccc1 (stereo partly drawn) [Example 55, (1R)-1-{1-[(3S)-1-(3-Phenylbutanoyl)piperidin-3-yl]-1H-imidazo[4,5-d]thieno[3,2-b]pyridin-2-yl}ethanol]
5 | >10 | CNC(C)c1nc2cnc3ccsc3c2n1[C@H]1CC[C@H](CC#N)OC1 (stereo partly drawn) [Example 70, ((2R,5S)-5-{2-[1-(Methylamino)ethyl]-1H-imidazo[4,5-d]thieno[3,2-b]pyridin-1-yl}tetrahydro-2H-pyran-2-yl)acetonitrile]
6 | >10 | C[C@@H](O)c1nc2cnc3ccsc3c2n1[C@H]1CCCN(C(=O)CCc2ccccc2)C1 [Example 57]
7 | >10 | C[C@@H](O)c1nc2cnc3ccsc3c2n1C1CCN(CCC#N)CC1 [Example 16, 3-(4-{2-[(1R)-1-Hydroxyethyl]-1H-imidazo[4,5-d]thieno[3,2-b]pyridin-1-yl}piperidin-1-yl)propanenitrile]
8 | >10 | C[C@@H](O)c1nc2cnc3ccsc3c2n1[C@H]1CC[C@H](CC#N)OC1 [Example 20, ((2R,5S)-5-{2-[(1R)-1-Hydroxyethyl]-1H-imidazo[4,5-d]thieno[3,2-b]pyridin-1-yl}tetrahydro-2H-pyran-2-yl)acetonitrile]
9 | >10 | COC(=O)NC[C@H]1CC[C@H](n2c(CC#N)nc3cnc4ccsc4c32)CC1 [Example 86, Methyl ({trans-4-[2-(cyanomethyl)-1H-imidazo[4,5-d]thieno[3,2-b]pyridin-1-yl]cyclohexyl}methyl)carbamate]
10 | >7 | N#CC[C@H]1CC[C@H](n2c(C3CNC3)nc3cnc4ccsc4c32)CC1 [Example 28, [trans-4-(2-Azetidin-3-yl-1H-imidazo[4,5-d]thieno[3,2-b]pyridin-1-yl)cyclohexyl]acetonitrile]
11 | >10 | C[C@@H](O)c1nc2cnc3ccsc3c2n1[C@H]1CC[C@H](CNS(C)(=O)=O)OC1 [Example 75, N-[((2R,5S)-5-{2-[(1R)-1-Hydroxyethyl]-1H-imidazo[4,5-d]thieno[3,2-b]pyridin-1-yl}tetrahydro-2H-pyran-2-yl)methyl]methanesulfonamide]
12 | >10 | C[C@H](O)c1nc2cnc3ccsc3c2n1[C@H]1CC[C@H](CC#N)OC1 [Example 45, ((2R,5S)-5-{2-[(1S)-1-Hydroxyethyl]-1H-imidazo[4,5-d]thieno[3,2-b]pyridin-1-yl}tetrahydro-2H-pyran-2-yl)acetonitrile]
13 | >7 | Cc1nc2cnc3ccsc3n2c1-c1ccc(CC#N)cc1 [Example 33, [4-(7-Methylimidazo[1,2-a]thieno[3,2-e]pyrazin-8-yl)phenyl]acetonitrile]
14 | >10 | Cc1nc2cnc3ccsc3c2n1[C@H]1CC[C@H](CC#N)OC1 [Example 38, [(2R,5S)-5-(2-Methyl-1H-imidazo[4,5-d]thieno[3,2-b]pyridin-1-yl)tetrahydro-2H-pyran-2-yl]acetonitrile]
15 | >10 | C[C@@H](O)c1nc2cnc3ccsc3c2n1[C@H]1CC[C@H](CF)CC1 [Example 12, (1R)-1-{1-[trans-4-(Fluoromethyl)cyclohexyl]-1H-imidazo[4,5-d]thieno[3,2-b]pyridin-2-yl}ethanol]
16 | >9 | CN1CC(c2nc3cnc4ccsc4c3n2[C@H]2CC[C@H](CC#N)CC2)C1 [Example 29, {trans-4-[2-(1-Methylazetidin-3-yl)-1H-imidazo[4,5-d]thieno[3,2-b]pyridin-1-yl]cyclohexyl}acetonitrile]

Row | JAK2/JAK1 | SMILES
17 | >10 | C[C@@H](O)c1nc2cnc3ccsc3c2n1C1CCCCC1 [Example 13, (1R)-1-(1-Cyclohexyl-1H-imidazo[4,5-d]thieno[3,2-b]pyridin-2-yl)ethanol]
18 | >10 | C[C@@H](O)c1nc2cnc3ccsc3c2n1[C@H]1CCN(CCCC#N)C1 [Example 65, 4-((3S)-3-{2-[(1R)-1-Hydroxyethyl]-1H-imidazo[4,5-d]thieno[3,2-b]pyridin-1-yl}pyrrolidin-1-yl)butanenitrile]
19 | >6 | C[C@@H](O)c1nc2cnc3ccsc3c2n1[C@H]1CCN(C(=O)CC#N)C1 [Example 63, 3-((3S)-3-{2-[(1R)-1-Hydroxyethyl]-1H-imidazo[4,5-d]thieno[3,2-b]pyridin-1-yl}pyrrolidin-1-yl)-3-oxopropanenitrile]
20 | >10 | CC(C)OC(=O)NC[C@H]1CC[C@H](n2c(CC#N)nc3cnc4ccsc4c32)CC1 [Example 88, Isopropyl ({trans-4-[2-(cyanomethyl)-1H-imidazo[4,5-d]thieno[3,2-b]pyridin-1-yl]cyclohexyl}methyl)carbamate]
21 | >10 | C[C@@H](O)c1nc2cnc3ccsc3c2n1C1CCNCC1F (stereo partly drawn) [9 (2nd peak), (1R)-1-[1-(3-Fluoropiperidin-4-yl)-1H-imidazo[4,5-d]thieno[3,2-b]pyridin-2-yl]ethanol]
22 | >10 | C[C@@H](O)c1nc2cnc3ccsc3c2n1[C@H]1CCCN(C(=O)CC#N)C1.O=C(O)C(F)(F)F [Example 51, 3-((3S)-3-{2-[(1R)-1-Hydroxyethyl]-1H-imidazo[4,5-d]thieno[3,2-b]pyridin-1-yl}piperidin-1-yl)-3-oxopropanenitrile trifluoroacetate]
23 | >6 | N#CC[C@H]1CC[C@H](n2/c(=N/C#N)[nH]c3cnc4ccsc4c32)CC1.O=C(O)C(F)(F)F [Example 25, {(2E)-1-[trans-4-(Cyanomethyl)cyclohexyl]-1,3-dihydro-2H-imidazo[4,5-d]thieno[3,2-b]pyridin-2-ylidene}cyanamide Trifluoroacetate]
24 | >10 | CS(=O)(=O)NCc1nc2cnc3ccsc3c2n1[C@H]1CC[C@H](CC#N)CC1 [Example 18, N-({1-[trans-4-(Cyanomethyl)cyclohexyl]-1H-imidazo[4,5-d]thieno[3,2-b]pyridin-2-yl}methyl)methanesulfonamide]
25 | >10 | CCC(=O)NC[C@H]1CC[C@H](n2c(CC#N)nc3cnc4ccsc4c32)CC1 [Example 89, N-({trans-4-[2-(Cyanomethyl)-1H-imidazo[4,5-d]thieno[3,2-b]pyridin-1-yl]cyclohexyl}methyl)propanamide]
26 | >10 | C[C@@H](O)c1cc2cnc3ccsc3c2n1[C@H]1CC[C@H](CC#N)CC1 [Example 23, (trans-4-{7-[(1R)-1-Hydroxyethyl]-8H-pyrrolo[2,3-d]thieno[3,2-b]pyridin-8-yl}cyclohexyl)acetonitrile]
27 | >10 | C[C@@H](O)c1nc2cnc3ccsc3c2n1[C@H]1CC[C@@H](CC#N)OC1 [Example 21, ((2S,5S)-5-{2-[(1R)-1-Hydroxyethyl]-1H-imidazo[4,5-d]thieno[3,2-b]pyridin-1-yl}tetrahydro-2H-pyran-2-yl)acetonitrile]
28 | >10 | C[C@@H](O)c1nc2cnc3ccsc3c2n1C1CCC(NCCC#N)CC1 (single isomer, unassigned) [30 (second peak)]
29 | >10 | C[C@@H](O)c1nc2cnc3ccsc3c2n1[C@H]1CC[C@H](CNS(C)(=O)=O)CC1 [Example 80, N-[(trans-4-{2-[(1R)-1-Hydroxyethyl]-1H-imidazo[4,5-d]thieno[3,2-b]pyridin-1-yl}cyclohexyl)methyl]methanesulfonamide]
30 | >10 | CCOC(=O)NC[C@H]1CC[C@H](n2c(CC#N)nc3cnc4ccsc4c32)CC1 [Example 87, Ethyl ({trans-4-[2-(cyanomethyl)-1H-imidazo[4,5-d]thieno[3,2-b]pyridin-1-yl]cyclohexyl}methyl)carbamate]
31 | >3 | Cc1nn2cnc3ccsc3c2c1-c1ccc(CC#N)cc1 [Example 46, [4-(8-Methylpyrazolo[1,5-c]thieno[2,3-e]pyrimidin-9-yl)phenyl]acetonitrile]
32 | >10 | C[C@@H](O)c1nc2cnc3ccsc3c2n1[C@H]1CC[C@@H](C#N)CC1 [Example 7, cis-4-{2-[(1R)-1-Hydroxyethyl]-1H-imidazo[4,5-d]thieno[3,2-b]pyridin-1-yl}cyclohexanecarbonitrile]

Row | SMILES | JAK2/JAK1
33 | Cc1nc2cnc3ccsc3c2n1[C@H]1CC[C@H](CC#N)[C@@H](O)C1 (single isomer, unassigned) [41 (first peak)] | >10
